Columns and labels:
[1] = target: T1, Sucrase-isomaltase, intestinal (Rattus norvegicus, UniProt P23739); assay: Inhibition of rat intestinal sucrase
[2] = system: Prunus dulcis; assay: Inhibition of almond beta glucosidase; details: concentration not given here
[3] = system: Canavalia ensiformis; assay: Inhibition of jack bean alpha mannosidase; details: concentration not given here
[4] = target: Alpha-galactosidase (Coffea arabica) (UniProt Q5DUH8); assay: Inhibition of green coffee bean alpha galactosidase; details: concentration not given here
Chain of Alpha-galactosidase (Coffea arabica) (Q5DUH8 as listed by the source): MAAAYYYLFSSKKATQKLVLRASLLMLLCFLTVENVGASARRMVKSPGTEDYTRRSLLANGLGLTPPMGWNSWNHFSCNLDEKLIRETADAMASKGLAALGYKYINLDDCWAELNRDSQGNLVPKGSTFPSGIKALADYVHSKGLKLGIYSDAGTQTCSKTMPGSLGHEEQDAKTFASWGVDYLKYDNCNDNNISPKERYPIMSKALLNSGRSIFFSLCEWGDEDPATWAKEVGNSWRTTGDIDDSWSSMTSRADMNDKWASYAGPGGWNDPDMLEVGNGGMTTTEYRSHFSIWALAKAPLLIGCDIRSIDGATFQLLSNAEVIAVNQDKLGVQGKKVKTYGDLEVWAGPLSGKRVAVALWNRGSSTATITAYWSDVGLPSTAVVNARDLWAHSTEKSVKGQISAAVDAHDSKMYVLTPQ

[5] = target: T2, Beta-galactosidase (Bos taurus) (UniProt Q58D55); assay: Inhibition of bovine liver beta galactosidase; details: concentration not given here
T2 sequence (whole entry): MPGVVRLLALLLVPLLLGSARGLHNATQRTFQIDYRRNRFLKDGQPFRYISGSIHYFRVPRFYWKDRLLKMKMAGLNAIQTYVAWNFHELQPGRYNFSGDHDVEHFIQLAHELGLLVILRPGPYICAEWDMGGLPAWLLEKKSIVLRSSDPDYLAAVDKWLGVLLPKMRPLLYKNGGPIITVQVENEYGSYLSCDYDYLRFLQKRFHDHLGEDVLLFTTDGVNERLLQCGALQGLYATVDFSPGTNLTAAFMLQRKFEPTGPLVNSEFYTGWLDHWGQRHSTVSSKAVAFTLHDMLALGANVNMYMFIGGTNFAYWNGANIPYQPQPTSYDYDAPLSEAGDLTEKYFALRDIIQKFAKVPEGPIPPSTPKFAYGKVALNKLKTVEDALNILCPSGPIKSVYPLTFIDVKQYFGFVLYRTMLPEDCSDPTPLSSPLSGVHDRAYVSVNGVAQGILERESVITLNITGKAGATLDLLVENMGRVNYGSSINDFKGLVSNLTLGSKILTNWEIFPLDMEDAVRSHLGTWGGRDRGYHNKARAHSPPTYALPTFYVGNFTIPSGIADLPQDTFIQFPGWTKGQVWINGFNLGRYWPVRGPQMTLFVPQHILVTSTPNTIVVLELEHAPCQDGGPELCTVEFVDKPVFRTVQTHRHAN

[6] = target: T3, Alpha-amylase (Sus scrofa domesticus) (UniProt Q7M328); assay: Inhibition of pig pancreas alpha amylase; details: concentration not given here
T3 sequence (whole entry): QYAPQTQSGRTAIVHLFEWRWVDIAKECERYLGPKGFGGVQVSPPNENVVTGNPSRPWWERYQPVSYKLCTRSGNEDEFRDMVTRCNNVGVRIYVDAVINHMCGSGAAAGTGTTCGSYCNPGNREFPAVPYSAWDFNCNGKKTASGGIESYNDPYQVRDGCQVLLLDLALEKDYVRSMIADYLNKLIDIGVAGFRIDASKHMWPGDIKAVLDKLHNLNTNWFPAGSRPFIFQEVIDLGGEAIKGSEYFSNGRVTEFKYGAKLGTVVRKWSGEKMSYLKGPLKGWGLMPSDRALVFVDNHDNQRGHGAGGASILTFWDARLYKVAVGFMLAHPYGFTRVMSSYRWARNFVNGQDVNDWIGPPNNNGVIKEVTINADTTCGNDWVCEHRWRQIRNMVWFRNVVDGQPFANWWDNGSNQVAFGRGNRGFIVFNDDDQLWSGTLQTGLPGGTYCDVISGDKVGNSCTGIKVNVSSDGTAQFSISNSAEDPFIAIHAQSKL

[7] = target: T1, Sucrase-isomaltase, intestinal; assay: Inhibition of sucrose hydrolyzing activity of rat intestinal alpha glucosidase
[8] = target: Sucrase-isomaltase, intestinal (Rattus norvegicus) (UniProt P23739); assay: Inhibition of rat intestinal sucrase at 500 uM
Chain of Sucrase-isomaltase, intestinal (Rattus norvegicus) (P23739 1-1013 limits assumed): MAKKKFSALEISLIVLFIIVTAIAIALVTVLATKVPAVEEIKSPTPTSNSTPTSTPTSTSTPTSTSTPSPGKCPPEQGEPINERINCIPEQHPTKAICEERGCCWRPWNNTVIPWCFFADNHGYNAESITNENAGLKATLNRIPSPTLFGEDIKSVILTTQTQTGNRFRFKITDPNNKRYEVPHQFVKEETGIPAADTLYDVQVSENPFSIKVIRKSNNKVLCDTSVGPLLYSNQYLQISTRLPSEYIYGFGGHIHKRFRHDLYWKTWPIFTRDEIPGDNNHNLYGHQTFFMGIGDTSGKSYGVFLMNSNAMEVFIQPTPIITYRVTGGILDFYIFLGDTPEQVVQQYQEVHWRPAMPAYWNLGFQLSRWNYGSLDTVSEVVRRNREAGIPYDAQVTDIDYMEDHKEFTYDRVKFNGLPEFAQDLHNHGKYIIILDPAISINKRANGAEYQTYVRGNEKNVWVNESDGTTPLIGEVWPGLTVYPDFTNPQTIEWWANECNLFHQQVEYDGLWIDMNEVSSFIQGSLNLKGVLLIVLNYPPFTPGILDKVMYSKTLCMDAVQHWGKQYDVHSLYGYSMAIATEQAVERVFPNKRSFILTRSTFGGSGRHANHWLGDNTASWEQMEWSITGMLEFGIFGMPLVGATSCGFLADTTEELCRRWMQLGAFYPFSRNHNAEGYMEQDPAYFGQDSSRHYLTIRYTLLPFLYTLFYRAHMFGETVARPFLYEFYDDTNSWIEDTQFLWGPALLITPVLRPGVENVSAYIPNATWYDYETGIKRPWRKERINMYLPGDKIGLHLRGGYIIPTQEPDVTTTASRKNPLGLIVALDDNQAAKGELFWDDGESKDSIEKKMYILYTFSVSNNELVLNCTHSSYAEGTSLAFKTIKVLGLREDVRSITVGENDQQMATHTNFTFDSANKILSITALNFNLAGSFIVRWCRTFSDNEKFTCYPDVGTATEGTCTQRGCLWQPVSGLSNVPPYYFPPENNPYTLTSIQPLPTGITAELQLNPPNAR
Chain of Sucrase-isomaltase, intestinal (Rattus norvegicus) (P23739 1014-1841 limits assumed): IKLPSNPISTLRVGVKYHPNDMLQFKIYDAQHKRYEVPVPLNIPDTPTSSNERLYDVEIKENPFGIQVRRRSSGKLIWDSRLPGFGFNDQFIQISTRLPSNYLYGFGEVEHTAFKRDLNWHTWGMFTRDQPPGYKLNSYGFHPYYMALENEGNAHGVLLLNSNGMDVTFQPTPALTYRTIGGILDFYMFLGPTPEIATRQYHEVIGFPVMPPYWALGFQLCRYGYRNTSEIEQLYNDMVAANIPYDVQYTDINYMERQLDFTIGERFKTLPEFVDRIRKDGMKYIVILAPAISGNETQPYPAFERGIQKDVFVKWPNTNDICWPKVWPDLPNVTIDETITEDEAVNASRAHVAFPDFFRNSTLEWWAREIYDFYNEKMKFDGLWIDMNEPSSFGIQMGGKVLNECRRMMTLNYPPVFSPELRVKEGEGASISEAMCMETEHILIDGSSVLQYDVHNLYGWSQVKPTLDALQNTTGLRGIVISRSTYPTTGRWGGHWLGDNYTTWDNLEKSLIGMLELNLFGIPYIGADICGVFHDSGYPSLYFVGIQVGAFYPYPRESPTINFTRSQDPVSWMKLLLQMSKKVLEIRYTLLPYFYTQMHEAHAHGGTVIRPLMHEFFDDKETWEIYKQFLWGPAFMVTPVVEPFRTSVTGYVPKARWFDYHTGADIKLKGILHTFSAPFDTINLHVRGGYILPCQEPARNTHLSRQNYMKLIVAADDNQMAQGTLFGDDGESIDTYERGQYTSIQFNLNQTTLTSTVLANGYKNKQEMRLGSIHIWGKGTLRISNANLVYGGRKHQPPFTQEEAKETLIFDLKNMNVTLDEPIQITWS

[9] = target: Sucrase-isomaltase, intestinal (Rattus norvegicus) (UniProt P23739); assay: Inhibition of rat intestinal isomaltase at 500 uM

T1 sequence (P23739 1-1013 limits assumed): as the sequence (P23739 1-1013 limits assumed) above
T1 sequence (P23739 1014-1841 limits assumed): as the sequence (P23739 1014-1841 limits assumed) above

IC50 [1] [µM] | inhibition [2] [%] | inhibition [3] [%] | inhibition [4] [%] | inhibition [5] [%] | inhibition [6] [%] | Ki [7] [µM] | inhibition [8] [%] | inhibition [9] [%] | SMILES
4.2 | 12 | 3 | 8 | 4 | 11 | 4.2 |  |  | Nc1c(O)cccc1O
52 |  |  |  |  |  |  |  |  | O=c1cc(-c2ccccc2)oc2cc(O)c(O)c(O)c12 [BAICALEIN]
> 500 |  |  |  |  |  |  | 42 |  | Oc1cccc(O)c1O [PYROGALLOL]
2.4 | 19 | 7 | 6 | 10 | 12 |  |  | 32 | Nc1c(O)cc2oc(-c3ccccc3)cc(=O)c2c1O
3.6 | 7 | 4 | 10 | 5 | 15 |  |  |  | CC(=O)c1ccc(O)c(N)c1O
> 500 |  |  |  |  |  |  | 46 |  | Nc1ccc(O)cc1O
> 500 |  |  |  |  |  |  | 10 |  | N[C@H]1[C@H](O)CCC[C@@H]1O

Reference: ChEMBL document CHEMBL1143181, “2-Aminoresorcinol is a potent alpha-glucosidase inhibitor” (Bioorg Med Chem Lett, 2008)
